Values of other authors, collected in US20060292216A1, “Enteric delivery of (-)-hydroxycitric acid” (priority 2003, published 2006).

Assays:
[1] = test system: middle-aged rats fed a 30% fat diet
test subjects = details: chronic administration; resting and exercising conditions
humans = details: conditions that elevate de novo lipogenesis
[2] = test system: human hepatoma cell line Hep G2
[3] = test system: experimental animals fed a high-sugar diet; details: single large oral dose or two divided oral doses totaling one fourth of it

Row | Compound | protein and fat as percentage of body weight [1] | respiratory exchange ratio (test subjects) | fat synthesis and energy expenditure (humans) | cholesterol biosynthesis, of the control value, by incorporation from 3H2O [2] | incorporation of [1,5-14C]citrate into fatty acids and cholesterol ([2]; 0.5 mM or higher, 2.5 h and 18 h incubations) | reduction in food consumption [3] [%]
1 | O=C([O-])CC(O)(C(=O)[O-])C(O)C(=O)[O-].[K+].[K+].[K+] (stereo not drawn) [potassium HCA] | increased protein as a percentage of body weight while reducing fat as a percentage of body weight | – | – | – | – | –
2 | O=C(O)CC(O)(C(=O)O)C(O)C(=O)O (single isomer, unassigned; (-)) [HCA, (−)-hydroxycitric acid] | – | significantly lower | reduced fat synthesis and increased energy expenditure | 27 % of the control value | strongly inhibited | ≥ 10
